Experimental data: ChEMBL document CHEMBL5727813, “Inhibitors of lysine gingipain” (2020)

Test: Inhibition of Lysine Gingipain: The capacities of compounds of the present invention to inhibit the activity of lysine gingipain were measured in a fluorogenic assay similar to those described in Barret Biochemical Journal. 1980, 187(3), 909. The specific assay conditions were as follows. Buffer: pH=7.5, 100 mM Tris-HCl, 75 mM NaCl, 2.5 mM CaCl2, 10 mM cysteine, 1% DMSO after all additions. Protein: 0.1 nM Kgp, isolated from culture of Porphyromonas gingivalis, as described in Pike et al. J. Biol. Chem. 1994, 269(1), 406, and Potempa and Nguyen. Current Protocols in Protein Scienc. 2007, 21.20.1-21.20.27. Fluorogenic substrate: 10 uM Z-His-Glu-Lys-MCA. Time=90 minutes. Temperature=37° C. Each compound: 10 concentrations, starting at either 100 uM or 100 nM, with lower concentrations generated by serial 3-fold dilutions. By testing a range of concentrations for each compound, the concentration required to inhibit the activity of lysine gingipain by 50% (the “IC50”) was determined. Under the described assay conditions, signal-to-noise was excellent, and Z factor was greater than 0.6.

Structure (SMILES): NCCCC[C@H](NC(=O)C1CCCC1)C(=O)c1ccccn1
- IC50: > 250 nM
